Here are results for three compounds from patent US8088819B2, “Derivatives of substituted 3-phenyl-1-(phenylthienyl)propan-1-ones and of 3-phenyl-1-(phenylfuranyl) propan-1-ones, preparation and use” (priority 2006, dated 2012).

Structures are written as SMILES.

For one assay, the target named is T1, hPPARalpha (Homo sapiens, UniProt Q07869).
T1 construct: expressed in transfected cells; host or cells: COS-7 (monkey kidney fibroblasts)
T1 sequence (Q07869 239-466 limits assumed): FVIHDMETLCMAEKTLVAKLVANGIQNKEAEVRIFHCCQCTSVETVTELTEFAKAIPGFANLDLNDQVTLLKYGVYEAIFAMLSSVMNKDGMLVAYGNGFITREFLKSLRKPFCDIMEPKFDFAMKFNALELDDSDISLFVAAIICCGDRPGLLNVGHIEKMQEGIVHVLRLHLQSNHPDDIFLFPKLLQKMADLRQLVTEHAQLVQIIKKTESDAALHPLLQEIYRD
The experiment in a line: PPAR activation: Gal4-hPPARα chimera luciferase transactivation in COS-7 cells, Method 1. It counts as cell-based. To be noted: COS-7, 24 h; for Emax: maximum percentage response relative to the reference phenofibric acid, read-out: hPPARalpha % max. Put shortly:
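COS-7 cells transiently transfected with Gal4 DBD–human PPAR LBD (DEF domain) chimeras plus Gal4(RE)_TkpGL3 luciferase reporter (1/10 ratio). Compounds applied 24 h at 37 °C in serum-free medium at doses between 10^−5 and […]; luciferase read after lysis, EC50 derived.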

The test system of the next assay is murine myocytes (C2C12). The experiment in a line: β-oxidation of fatty acids in murine myocytes (tritiated palmitate). It counts as cell-based. Conditions: 24 h pretreatment. An excerpt:
The more the induction of the β-oxidation of fatty acids is increased, the greater the stimulating action of the compound according to the invention on metabolism in the muscle cells.
The objective is to measure the amount of tritiated water formed during the mitochondrial oxidation of ^3H-labeled fatty acids.
The C2C12 murine cell line (obtained from ECACC) is cultivated in DMEM medium (Gibco; 41965-039) with addition of 1% L-glutamine (Gibco; 25030), 1% penicillin/streptomycin (VWR; BWSTL0022/100) and 10% decomplemented fetal calf serum (FCS. Gibco; 10270-106).
The cells are seeded on 48-well plates at a density of 25·10^3 cells/well. At confluence, the medium is replaced with a differentiating medium (basal medium with addition of 2% of horse serum (Gibco; 26050-088)), then incubated at 37° C. and 5% CO2 for 4 days in order to differentiate them to myocytes.
After 4 days of differentiation, the cells are treated with the compounds according to the invention added to the culture medium for differentiation. Compound 2 was tested by dose effect from 0.01 to 1 μM, and the others were tested at a dose of 1 μM. The compounds according to the invention are dissolved in dimethylsulfoxide (DMSO, Sigma; D5879). The cells are treated for 24 h at 37° C., 5% CO2. The effect of the compounds according to the invention is compared with the effect of DMSO alone. […]
Secondly, 50 μL of precipitated supernatant is evaporated for 2 days, then the residual tritium is measured in order to evaluate the amount of tritiated palmitate not converted to water.
A standard range is prepared by successive dilutions of the tritiated palmitate/BSA complex in order to determine the amount of palmitate converted to water. For each time of the kinetics, 1 h, 2 h and 3 h, the amount in nanomoles of oxidized palmitate is calculated by linear regression. The areas under the curve are determined for each set of conditions and the results are normalized with DMSO. […]

Turning to `CC(C)(Oc1ccc(CCC(=O)c2ccc(-c3ccc(C(F)(F)F)cc3)s2)c(Cl)c1Cl)C(=O)O` [Compound 2, 2-(2,3-dichloro-4-(3-oxo-3-(5-(4-(trifluoromethyl)phenyl)thien-2-yl)propyl)phenoxy)-2-methylpropanoic acid], on hPPARalpha, the EC50 (in general, the concentration needed to bring the measured effect to its halfway point) was 53 nM and the Emax was 43%. In addition, the “β-oxidation of fatty acids in murine myocytes” value in the assay on murine myocytes (C2C12) (in dose effect starting from 0.01 μM) is “significant increase”.
`CC(C)(Oc1ccc(CCC(O)c2ccc(-c3ccc(C(F)(F)F)cc3)s2)c(Cl)c1Cl)C(=O)O` (stereo not drawn) [Compound 4, 2-(2,3-dichloro-4-(3-hydroxy-3-(5-(4-(trifluoromethyl)phenyl)thien-2-yl)propyl)phenoxy)-2-methylpropanoic acid]: at hPPARalpha, the EC50 stood at 125 nM and the Emax came to 50%. Moreover, the “β-oxidation of fatty acids in murine myocytes” value in the assay with murine myocytes (C2C12) (at 1 μm) is “significant increase”.
Taken in the same sequence, the figures for `CC(C)(Oc1ccc(CCC(=O)c2cc(-c3ccc(C(F)(F)F)cc3)cs2)c(Cl)c1Cl)C(=O)O` [Compound 11, 2-(2,3-dichloro-4-(3-oxo-3-(4-(4-(trifluoromethyl)phenyl)thien-2-yl)propyl)phenoxy)-2-methylpropanoic acid] were 288 nM, 39% and “significant increase”.
